Measured values taken from PubChem BioAssay (NCI).
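Cells were grown in 96-well plates and exposed to each compound for 48 hours at five concentrations; endpoints were interpolated linearly between bracketing concentrations, or set to the highest concentration if not reached. The concentration for full growth arrest is given as TGI.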 Where a SMILES comes first, the peptide text is derived from it. The star is where a group is joined. Boc = CC(C)(C)OC(=O)*

What was measured:
Test in all cases: inhibition of tumour cell growth, NCI panel, 48 h
SW-620 colon = system: SW-620 colon
SF-295 CNS = system: SF-295 CNS
COLO 205 colon = system: COLO 205 colon
SN12C renal = system: SN12C renal
SK-MEL-2 melanoma = system: SK-MEL-2 melanoma
NCI-H460 lung = system: NCI-H460 lung
DU-145 prostate = system: DU-145 prostate
OVCAR-5 ovarian = system: OVCAR-5 ovarian
NCI-H226 lung = system: NCI-H226 lung
SK-MEL-28 melanoma = system: SK-MEL-28 melanoma
786-0 renal = system: 786-0 renal
NCI/ADR-RES ovarian = system: NCI/ADR-RES ovarian
UO-31 renal = system: UO-31 renal
CCRF-CEM leukemia = system: CCRF-CEM leukemia
HCT-15 colon = system: HCT-15 colon
MCF7 breast = system: MCF7 breast
OVCAR-4 ovarian = system: OVCAR-4 ovarian
T-47D breast = system: T-47D breast
SK-OV-3 ovarian = system: SK-OV-3 ovarian

Row | SMILES | TGI (SW-620 colon) [µM] | TGI (SF-295 CNS) [µM] | TGI (COLO 205 colon) [µM] | TGI (SN12C renal) [µM] | TGI (SK-MEL-2 melanoma) [µM] | TGI (NCI-H460 lung) [µM] | TGI (DU-145 prostate) [µM] | TGI (OVCAR-5 ovarian) [µM] | TGI (NCI-H226 lung) [µM] | TGI (SK-MEL-28 melanoma) [µM] | TGI (786-0 renal) [µM] | TGI (NCI/ADR-RES ovarian) [µM] | TGI (UO-31 renal) [µM] | TGI (CCRF-CEM leukemia) [µM] | TGI (HCT-15 colon) [µM] | TGI (MCF7 breast) [µM] | TGI (OVCAR-4 ovarian) [µM] | TGI (T-47D breast) [µM] | TGI (SK-OV-3 ovarian) [µM]
1 | O=C(CCc1cccc(O)c1)NCCc1cccc(OCc2ccccc2)c1 | > 56.5 | 32.9 | 38 | 45.1 | 32.3 | 34.5 | > 80 | 57.9 | 31.5 | 31.8 | 67.5 | 41.2 | 33.4 | 42.4 | 49.3 | 40.4 | 63.6 | 55 | 53.5
2 | O=[N+]([O-])c1ccc(N2N=C(c3ccc4ccccc4c3O)CC2c2ccc(Cl)cc2Cl)c([N+](=O)[O-])c1 (stereo not drawn) | > 100 | > 100 | > 100 | > 100 | > 100 | > 100 | > 100 | > 100 | > 100 | > 100 | > 100 | > 100 | > 100 | 35.5 | > 100 | > 100 | > 100 | > 100 | > 100
3 | CCCCOc1ccc(S(=O)(=O)/N=C(\NN)Nc2ccc(Cl)cc2)cc1 | 82.2 | 67.7 | 38.5 | 38.6 | > 100 | 31.9 | 31.1 | 52.9 | > 100 | > 100 | 31 | 76.3 | 37.5 | 47.6 | > 100 | > 100 | 45.3 | 46.2 | 67.4
4 | CC(=O)O/C=C\OC1CCCC1 | > 100 | > 100 | > 100 | – | > 100 | > 100 | > 100 | – | > 100 | > 100 | > 100 | > 100 | > 100 | > 100 | > 100 | > 100 | > 100 | > 100 | > 100
5 | O=C1CSC(/C=C/c2ccccc2)N1c1ccc(-n2c(-c3ccccc3)nc3ccccc3c2=O)cc1 (stereo not drawn) | – | > 100 | > 100 | > 100 | > 100 | > 100 | > 100 | > 100 | > 100 | > 100 | > 100 | > 100 | > 100 | > 100 | > 100 | > 100 | 86.2 | > 100 | 69
6 | COc1ccc(Nc2nc3ccccc3nc2C(=O)O)cc1 | > 100 | > 100 | > 100 | > 100 | > 100 | > 100 | > 100 | > 100 | – | > 100 | > 100 | > 100 | > 100 | > 100 | > 100 | > 100 | > 100 | > 100 | > 100
7 | COC(=O)/C(=C\C(=O)c1ccc(Br)cc1)NN=C(c1ccccc1)c1ccccc1 | > 10 | > 10 | > 10 | > 10 | – | – | > 10 | – | – | > 10 | > 10 | – | – | > 10 | > 10 | > 10 | > 10 | > 10 | > 10
8 | CNC(=O)OCCN1c2ccccc2Sc2ccccc21 | > 100 | > 100 | > 100 | > 100 | – | > 100 | > 100 | > 100 | > 100 | > 100 | > 100 | > 100 | > 100 | > 100 | > 100 | > 100 | > 100 | > 100 | > 100
9 | CCCCCCCCCC(=O)CC(=O)c1c(O)cc(O)cc1O | > 75 | 68.2 | > 75 | 37.3 | 40.9 | – | 57.9 | 48.2 | 36.2 | 72.8 | > 75 | 38.6 | 31.7 | > 75 | 43.8 | > 75 | 35.8 | > 75 | > 75
10 | CCOC(=O)CCC(NC(=O)c1ccc(Oc2nc3ccccc3nc2C(=O)OCC)cc1)C(=O)OCC (stereo not drawn) | > 100 | > 100 | > 100 | > 100 | > 100 | > 100 | > 100 | > 100 | – | > 100 | > 100 | > 100 | > 100 | > 100 | > 100 | > 100 | > 100 | > 100 | –
11 | O=C(N/C(=C/c1ccc(Cl)cc1)c1nc2ccccc2c(=O)n1Nc1ccc([N+](=O)[O-])cc1[N+](=O)[O-])c1ccccc1 | > 100 | > 100 | > 100 | > 100 | – | > 100 | – | > 100 | > 100 | > 100 | > 100 | > 100 | > 100 | > 100 | > 100 | > 100 | > 100 | > 100 | > 100
12 | O=C(NC/C(Cl)=C/Cl)Nc1cccc2c1CCCC2 | > 100 | > 100 | > 100 | > 100 | > 100 | > 100 | > 100 | > 100 | > 100 | > 100 | > 100 | > 100 | > 100 | – | > 100 | > 100 | > 100 | > 100 | > 100
13 | N#CC(c1ccccc1)(c1ccccc1)[C@@H](c1ccccc1)[C@H](Cc1ccccc1)NS(=O)(=O)c1ccccc1 | > 100 | > 100 | > 100 | > 100 | > 100 | > 100 | > 100 | > 100 | – | > 100 | > 100 | > 100 | > 100 | > 100 | > 100 | > 100 | > 100 | > 100 | > 100
14 | COc1ccccc1OC(=O)/C=C/c1ccccc1 | > 100 | > 100 | > 100 | > 100 | > 100 | > 100 | > 100 | > 100 | > 100 | > 100 | > 100 | > 100 | > 100 | – | > 100 | > 100 | > 100 | > 100 | > 100
15 | CCOC(=O)CCc1c(C)[nH]c2c(C)c3c([nH]c4ccc(Cl)cc43)c(C)c2c1=O | > 100 | 22.1 | 89 | – | 14.4 | 6.11 | > 100 | 19.1 | 46.5 | 46.1 | 20.5 | 54 | 40.6 | > 100 | 54.5 | 37.7 | 41.4 | 54.3 | –
16 | Cc1cc(C)c2c(c1)C(=O)C1(C2)Cc2c(ccc(C)c2C)C1=O (stereo not drawn) | > 100 | > 100 | > 100 | > 100 | > 100 | > 100 | > 100 | – | > 100 | > 100 | > 100 | > 100 | > 100 | > 100 | > 100 | > 100 | > 100 | > 100 | –
17 | COc1ccc2[nH]c3c(C)c4cnccc4c(C)c3c2c1 | 3.4 | > 10 | 4.44 | > 10 | > 10 | 3.58 | 9.93 | > 10 | 9.27 | 3.44 | 1.64 | 6.94 | – | > 10 | 3.4 | 3.9 | 5.17 | > 10 | > 10
18 | CCOC(=O)c1c(N2CCOCC2)[nH]c(=O)c(C(c2ccc(Cl)c([N+](=O)[O-])c2)c2c(O)c(C(=O)OCC)c(N3CCOCC3)[nH]c2=O)c1O | 58.7 | > 100 | > 100 | 51 | – | > 100 | 55.8 | > 100 | > 100 | > 100 | > 100 | > 100 | 95.5 | 40.4 | > 100 | 69.6 | > 100 | 48.8 | > 100
19 | CC(C)(C)OC(=O)N/N=C(/N)c1ccccc1 | – | > 100 | > 100 | > 100 | > 100 | > 100 | > 100 | > 100 | > 100 | > 100 | > 100 | > 100 | > 100 | > 100 | > 100 | > 100 | > 100 | > 100 | > 100
20 | COC(=O)c1ccc(NCc2cc(O)ccc2O)cc1O | 19.9 | 27.2 | 33.7 | 29.1 | 37.4 | 31.2 | 25.3 | 31 | 46.3 | 30 | 21.5 | 10.8 | 5.61 | – | 26.5 | 21.6 | 26.2 | 37.5 | > 55.5
21 | N#CC(c1ccccc1)N(CCc1ccccc1)C(=O)Oc1ccccc1 (stereo not drawn) | > 100 | > 100 | > 100 | > 100 | > 100 | – | > 100 | > 100 | > 100 | > 100 | > 100 | > 100 | > 100 | > 100 | > 100 | > 100 | > 100 | > 100 | > 100
22 | Cc1cc(C)c(NS(=O)c2cccc([N+](=O)[O-])c2)c(C)c1 (stereo not drawn) | > 100 | > 100 | > 100 | > 100 | – | > 100 | > 100 | > 100 | > 100 | > 100 | > 100 | > 100 | > 100 | > 100 | > 100 | > 100 | – | > 100 | –
23 | CCOC(=O)C(CC(C)C)NC(=O)C(Cc1ccccc1)NC(=O)CNC(=O)OC(C)(C)C (stereo not drawn) (Boc-Gly-Phe-Leu-OEt; configuration not given here) | 39.9 | 78.5 | – | 35.4 | 99.4 | 26.6 | 43.6 | – | 41 | 31.5 | 36.9 | > 100 | > 100 | 41.3 | 35.8 | 17.3 | 71.1 | 61 | 50.9
24 | NC(=O)C(=CN1CC(=O)NC1=S)C(N)=O | > 100 | > 100 | > 100 | > 100 | > 100 | > 100 | > 100 | > 100 | > 100 | > 100 | > 100 | > 100 | > 100 | – | > 100 | > 100 | > 100 | > 100 | > 100
25 | COc1ccc(C(=O)c2ccc(-n3c4ccccc4c4ccc5c(c43)C(=O)C=CC5=O)cc2)cc1 | – | 17.1 | 9.34 | 4.01 | 11.3 | 19.3 | > 21.8 | 40.3 | 69.4 | – | 1.3 | > 21.3 | 1.07 | – | 6.07 | 2.6 | 6.37 | > 100 | 27.5
26 | COc1cccc(-c2cc(=O)c3cccnc3[nH]2)c1 | > 100 | > 100 | – | > 100 | > 100 | – | > 100 | > 100 | – | > 100 | > 100 | – | > 100 | > 100 | > 100 | > 100 | > 100 | > 100 | > 100
